Measured values reported in US9453062B2, “Glucose dependent insulinotropic polypeptide analogs, pharmaceutical compositions and use thereof” (Beijing Hanmi Pharmaceutical Co., Ltd., priority 2011, dated 2016).
Where two headings read alike, the source gives them in different places. Where a SMILES comes first, the peptide text is derived from it. Bridges are numbered along the chain shown (N, C = ends). Where no end group is shown, it is not given here. [ ]: non-standard residue; d: D form. The star is where a group is joined. Palmitoyl = CCCCCCCCCCCCCCCC(=O)*; Aib = CC(C)(N)C(=O)O

Key:
[1] = biological target: T1, hGIPR (Homo sapiens, UniProt P48546); experiment: hGIPR-mediated cAMP induction assay in CHO cell line; assay type: cell-based
T1 construct: expressed in transfected cells; host or cells: CHO
T1 sequence (P48546 22-466): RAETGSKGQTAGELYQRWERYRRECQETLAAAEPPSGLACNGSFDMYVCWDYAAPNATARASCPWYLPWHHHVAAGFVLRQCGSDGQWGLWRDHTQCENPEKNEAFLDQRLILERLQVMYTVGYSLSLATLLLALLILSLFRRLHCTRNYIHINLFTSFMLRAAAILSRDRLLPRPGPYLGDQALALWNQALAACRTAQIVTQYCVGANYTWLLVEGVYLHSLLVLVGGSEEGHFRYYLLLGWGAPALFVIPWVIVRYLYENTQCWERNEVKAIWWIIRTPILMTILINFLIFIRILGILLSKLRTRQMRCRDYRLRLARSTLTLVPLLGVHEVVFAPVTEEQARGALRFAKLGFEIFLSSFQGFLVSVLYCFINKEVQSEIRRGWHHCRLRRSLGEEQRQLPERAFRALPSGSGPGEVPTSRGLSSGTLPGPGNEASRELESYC

[2] = biological target: T2, hGLP-1R (Homo sapiens, UniProt P43220); experiment: hGLP-1R-mediated cAMP induction assay in CHO cell line; assay type: cell-based;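 also: CHO cells expressing human GLP-1R, treated 30 min at 37 °C, intracellular cAMP measured by competitive fluorescent immunoassay and converted via a cAMP standard curve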
T2 construct: expressed in transfected cells; host or cells: CHO
T2 sequence (P43220 24-463): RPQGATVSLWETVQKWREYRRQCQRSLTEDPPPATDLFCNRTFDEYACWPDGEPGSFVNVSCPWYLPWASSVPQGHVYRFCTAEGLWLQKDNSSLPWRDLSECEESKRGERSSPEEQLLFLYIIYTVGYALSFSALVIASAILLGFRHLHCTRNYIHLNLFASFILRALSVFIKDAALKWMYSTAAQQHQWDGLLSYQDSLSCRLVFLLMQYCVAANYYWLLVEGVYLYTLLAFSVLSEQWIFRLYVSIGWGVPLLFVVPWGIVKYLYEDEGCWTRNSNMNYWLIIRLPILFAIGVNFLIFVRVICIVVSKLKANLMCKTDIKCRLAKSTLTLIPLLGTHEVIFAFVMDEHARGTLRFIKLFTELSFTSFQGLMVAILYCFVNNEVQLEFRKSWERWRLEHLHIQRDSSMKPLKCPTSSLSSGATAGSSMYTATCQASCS
From the text: The cAMP in the sample or standard competes with horseradish peroxidase (HRP)-labeled cAMP conjugate for binding sites on the anti-cAMP antibodies. In the absence of cAMP, most of the HRP-cAMP conjugate is bound to the antibody. Increasing concentrations of cAMP competitively decrease the amount of bound conjugate, thus decreasing measured HRP activity.
Assay kit: CatchPoint™ Cyclic-AMP Fluorescent Assay Kit (Molecular Devices, Product # R8088)
Cell lines: CHO hGLP1R, CHO hGIPR
Cell seeding: CHO hGLP1R or CHO hGIPR cells: 10,000 cells/well/100 uL at 37° C. 5% CO2 overnight.
Gently aspirate off media and wash the cells with KRBG Buffer, 100 uL/well.
Incubate the plate for 10 min at room temperature. Then add the KRBG buffer with 3× final concentration of the tested samples (5-foled series diluted from 5,000 nM), 50 uL/well. Incubate the plate at 37° C. 5% CO2 for 30 min.
Add 50 uL of Lysis buffer to each well and put the plate on a shaker for 10 min.
Place 40 uL of samples and analyze in appropriate wells. And test the cAMP concentration in each sample by following the manufacture's instruction.
Detect the fluorescence signal at Ex: 490 nm and Em: 530 nm. Transfer the FI signal to cAMP concentration by the cAMP standard curve. The Dose-response curve and EC50 were obtained by logistic fitting of Origin 8.

Row | Compound | GIP Receptor Relative Potency ([1]; Table 3, against native GIP) | GLP-1 Receptor Relative Potency ([2]; Table 3, against native GLP-1) | EC50 ([1]; Table 3, CHO hGIPR cells) [nM] | EC50 ([2]; Table 3, CHO hGLP1R cells) [nM] | EC50 ([1]; Table 1, CHO/hGIPR cells, read-out: GIPR EC50) [nM] | GIPR Relative Potency ([1]; Table 1, against native GIP) [%] | EC50 ([2]; Table 1, CHO/hGLP-1R cells, read-out: GLP-1R EC50) [nM] | GLP-1R Relative Potency ([2]; Table 1, against native GLP-1) [%]
1 | CC[C@H](C)[C@H](NC(=O)[C@H](Cc1ccccc1)NC(=O)[C@H](CCC(=O)O)NC(=O)[C@H](CCCNC(=N)N)NC(=O)[C@@H](NC(=O)[C@H](C)NC(=O)[C@H](CCC(=O)O)NC(=O)[C@@H]1CCCCNC(=O)CC[C@H](NC(=O)[C@H](CO)NC(=O)[C@H](Cc2ccc(O)cc2)NC(=O)[C@H](CC(=O)O)NC(=O)[C@H](CO)NC(=O)[C@@H](NC(=O)[C@H](Cc2ccccc2)NC(=O)[C@@H](NC(=O)CNC(=O)[C@H](CCC(=O)O)NC(=O)C(C)(C)NC(=O)[C@@H](N)Cc2ccc(O)cc2)[C@@H](C)O)[C@@H](C)O)C(=O)N[C@@H](Cc2ccc(O)cc2)C(=O)N[C@@H](CCSC)C(=O)N[C@@H](CCC(=O)O)C(=O)N1)C(C)C)C(=O)N[C@@H](C)C(=O)N[C@@H](Cc1c[nH]c2ccccc12)C(=O)N[C@@H](CC(C)C)C(=O)N[C@H](C(=O)N[C@@H](CCCCN)C(=O)NCC(N)=O)C(C)C [Compound 052-2] (H-Y[Aib]EGTFTSDYSEYMEKEAVREFIAWLVKG-NH2; lactam 12-16) | 146.8 | 132.8 | – | – | – | – | – | –
2 | CCCCCCCCCCCCCCCC(=O)N[C@@H](CCC(=O)N[C@@H](CCC(=O)NCCCC[C@H](NC(=O)[C@H](CO)NC(=O)[C@@H]1CCCN1C(=O)[C@@H]1CCCN1C(=O)[C@@H]1CCCN1C(=O)[C@H](C)NC(=O)CNC(=O)[C@H](CO)NC(=O)[C@H](CO)NC(=O)[C@@H]1CCCN1C(=O)CNC(=O)CNC(=O)[C@H](CCCCN)NC(=O)[C@@H](NC(=O)[C@H](CC(C)C)NC(=O)[C@H](Cc1c[nH]c2ccccc12)NC(=O)[C@H](C)NC(=O)[C@@H](NC(=O)[C@H](Cc1ccccc1)NC(=O)[C@H](CCC(=O)O)NC(=O)[C@H](CCCNC(=N)N)NC(=O)[C@@H](NC(=O)[C@H](C)NC(=O)[C@H](CCC(=O)O)NC(=O)[C@H](CCCCN)NC(=O)[C@H](CCC(=O)O)NC(=O)[C@H](CCSC)NC(=O)[C@H](Cc1ccc(O)cc1)NC(=O)[C@@H](NC(=O)[C@H](CO)NC(=O)[C@H](Cc1ccc(O)cc1)NC(=O)[C@H](CC(=O)O)NC(=O)[C@H](CO)NC(=O)[C@@H](NC(=O)[C@H](Cc1ccccc1)NC(=O)[C@@H](NC(=O)CNC(=O)[C@H](CCC(=O)O)NC(=O)C(C)(C)NC(=O)[C@@H](N)Cc1ccc(O)cc1)[C@@H](C)O)[C@@H](C)O)[C@@H](C)CC)C(C)C)[C@@H](C)CC)C(C)C)C(N)=O)C(=O)O)C(=O)O [Compound 091] | 287.8 | 921.5 | 0.041 | 0.116 | – | – | – | –
3 | CCCCCCCCCCCCCCCC(=O)NCCCC[C@H](NC(=O)[C@H](CO)NC(=O)[C@@H]1CCCN1C(=O)[C@@H]1CCCN1C(=O)[C@@H]1CCCN1C(=O)[C@H](C)NC(=O)CNC(=O)[C@H](CO)NC(=O)[C@H](CO)NC(=O)[C@@H]1CCCN1C(=O)CNC(=O)CNC(=O)[C@H](CCCCN)NC(=O)[C@@H](NC(=O)[C@H](CC(C)C)NC(=O)[C@H](Cc1c[nH]c2ccccc12)NC(=O)[C@H](CS)NC(=O)[C@@H](NC(=O)[C@H](Cc1ccccc1)NC(=O)[C@H](CCC(=O)O)NC(=O)[C@H](CCCNC(=N)N)NC(=O)[C@@H](NC(=O)[C@H](C)NC(=O)[C@H](CCC(=O)O)NC(=O)[C@H](CCCCN)NC(=O)[C@H](CCC(=O)O)NC(=O)[C@H](CCSC)NC(=O)[C@H](Cc1ccc(O)cc1)NC(=O)[C@@H](NC(=O)[C@H](CO)NC(=O)[C@H](Cc1ccc(O)cc1)NC(=O)[C@H](CC(=O)O)NC(=O)[C@H](CO)NC(=O)[C@@H](NC(=O)[C@H](Cc1ccccc1)NC(=O)[C@@H](NC(=O)CNC(=O)[C@H](CCC(=O)O)NC(=O)C(C)(C)NC(=O)[C@@H](N)Cc1ccc(O)cc1)[C@@H](C)O)[C@@H](C)O)[C@@H](C)CC)C(C)C)[C@@H](C)CC)C(C)C)C(N)=O [Compound 096] (H-Y[Aib]EGTFTSDYSIYMEKEAVREFICWLVKGGPSSGAPPPSK(Palmitoyl)-NH2) | 42 | 404.7 | 0.1 | 0.253 | – | – | – | –
4 | Y[Aib]EGTFTSDYSIYMEKEAVREFIAWLVKGGPSSGAPPPSKKKKKK-NH2 [Compound 071] | 22.1 | 25.1 | 0.77 | 3.8 | – | – | – | –
5 | CCCCCCCCCCCCCCCC(=O)N[C@@H](CCC(=O)NCCCC[C@H](NC(=O)[C@H](CO)NC(=O)[C@@H]1CCCN1C(=O)[C@@H]1CCCN1C(=O)[C@@H]1CCCN1C(=O)[C@H](C)NC(=O)CNC(=O)[C@H](CO)NC(=O)[C@H](CO)NC(=O)[C@@H]1CCCN1C(=O)CNC(=O)CNC(=O)[C@H](CCCCN)NC(=O)[C@@H](NC(=O)[C@H](CC(C)C)NC(=O)[C@H](Cc1c[nH]c2ccccc12)NC(=O)[C@H](C)NC(=O)[C@@H](NC(=O)[C@H](Cc1ccccc1)NC(=O)[C@H](CCC(=O)O)NC(=O)[C@H](CCCNC(=N)N)NC(=O)[C@@H](NC(=O)[C@H](C)NC(=O)[C@H](CCC(=O)O)NC(=O)[C@H](CCCCN)NC(=O)[C@H](CCC(=O)O)NC(=O)[C@H](CCSC)NC(=O)[C@H](Cc1ccc(O)cc1)NC(=O)[C@@H](NC(=O)[C@H](CO)NC(=O)[C@H](Cc1ccc(O)cc1)NC(=O)[C@H](CC(=O)O)NC(=O)[C@H](CO)NC(=O)[C@@H](NC(=O)[C@H](Cc1ccccc1)NC(=O)[C@@H](NC(=O)CNC(=O)[C@H](CCC(=O)O)NC(=O)C(C)(C)NC(=O)[C@@H](N)Cc1ccc(O)cc1)[C@@H](C)O)[C@@H](C)O)[C@@H](C)CC)C(C)C)[C@@H](C)CC)C(C)C)C(N)=O)C(=O)O [Compound 090] | 1311 | 568.6 | 0.009 | 0.188 | – | – | – | –
6 | CC[C@H](C)[C@H](NC(=O)[C@H](CO)NC(=O)[C@H](Cc1ccc(O)cc1)NC(=O)[C@H](CC(=O)O)NC(=O)[C@H](CO)NC(=O)[C@@H](NC(=O)[C@H](Cc1ccccc1)NC(=O)[C@@H](NC(=O)CNC(=O)[C@H](CCC(=O)O)NC(=O)C(C)(C)NC(=O)[C@@H](N)Cc1ccc(O)cc1)[C@@H](C)O)[C@@H](C)O)C(=O)N[C@@H](Cc1ccc(O)cc1)C(=O)N[C@@H](CCSC)C(=O)N[C@@H](CCC(=O)O)C(=O)N[C@@H](CCCCN)C(=O)N[C@@H](CCC(=O)O)C(=O)N[C@@H](C)C(=O)N[C@H](C(=O)N[C@@H](CCCNC(=N)N)C(=O)N[C@@H](CC(C)C)C(=O)N[C@@H](Cc1ccccc1)C(=O)N[C@H](C(=O)N[C@@H](CCC(=O)O)C(=O)N[C@@H](Cc1c[nH]c2ccccc12)C(=O)N[C@@H](CC(C)C)C(=O)N[C@@H](CCCCN)C(=O)N[C@@H](CC(N)=O)C(=O)NCC(N)=O)[C@@H](C)CC)C(C)C [Compounds 024] (H-Y[Aib]EGTFTSDYSIYMEKEAVRLFIEWLKNG-NH2; N-terminus assumed) | 500 | 354 | – | – | 0.1 | 500 | 0.309 | 354
7 | CC[C@H](C)[C@H](NC(=O)[C@H](Cc1ccccc1)NC(=O)[C@H](CCC(=O)O)NC(=O)[C@@H]1CCC(=O)NCCCC[C@H](NC(=O)[C@H](CCC(=O)O)NC(=O)[C@H](CCSC)NC(=O)[C@H](Cc2ccc(O)cc2)NC(=O)[C@@H](NC(=O)[C@H](CO)NC(=O)[C@H](Cc2ccc(O)cc2)NC(=O)[C@H](CC(=O)O)NC(=O)[C@H](CO)NC(=O)[C@@H](NC(=O)[C@H](Cc2ccccc2)NC(=O)[C@@H](NC(=O)CNC(=O)[C@H](CCC(=O)O)NC(=O)C(C)(C)NC(=O)[C@@H](N)Cc2ccc(O)cc2)[C@@H](C)O)[C@@H](C)O)[C@@H](C)CC)C(=O)N[C@@H](CCC(=O)O)C(=O)N[C@@H](C)C(=O)N[C@@H](C(C)C)C(=O)N1)C(=O)N[C@@H](C)C(=O)N[C@@H](Cc1c[nH]c2ccccc12)C(=O)N[C@@H](CC(C)C)C(=O)N[C@H](C(=O)N[C@@H](CCCCN)C(=O)NCC(N)=O)C(C)C [Compound 053-2] (H-Y[Aib]EGTFTSDYSIYMEKEAVEEFIAWLVKG-NH2; lactam 16-20; N-terminus assumed) | 35.4 | 37 | – | 2.95 | – | – | – | –
8 | CCCCCCCCCCCCCCCC(=O)NCCCC[C@H](NC(=O)[C@H](CO)NC(=O)[C@@H]1CCCN1C(=O)[C@@H]1CCCN1C(=O)[C@@H]1CCCN1C(=O)[C@H](C)NC(=O)CNC(=O)[C@H](CO)NC(=O)[C@H](CO)NC(=O)[C@@H]1CCCN1C(=O)CNC(=O)CNC(=O)[C@H](CCCCN)NC(=O)[C@@H](NC(=O)[C@H](CC(C)C)NC(=O)[C@H](Cc1c[nH]c2ccccc12)NC(=O)[C@H](C)NC(=O)[C@@H](NC(=O)[C@H](Cc1ccccc1)NC(=O)[C@H](CCC(=O)O)NC(=O)[C@H](CCCNC(=N)N)NC(=O)[C@@H](NC(=O)[C@H](C)NC(=O)[C@H](CCC(=O)O)NC(=O)[C@H](CCCCN)NC(=O)[C@H](CCC(=O)O)NC(=O)[C@H](CCSC)NC(=O)[C@H](Cc1ccc(O)cc1)NC(=O)[C@@H](NC(=O)[C@H](CO)NC(=O)[C@H](Cc1ccc(O)cc1)NC(=O)[C@H](CC(=O)O)NC(=O)[C@H](CO)NC(=O)[C@@H](NC(=O)[C@H](Cc1ccccc1)NC(=O)[C@@H](NC(=O)CNC(=O)[C@H](CCC(=O)O)NC(=O)C(C)(C)NC(=O)[C@@H](N)Cc1ccc(O)cc1)[C@@H](C)O)[C@@H](C)O)[C@@H](C)CC)C(C)C)[C@@H](C)CC)C(C)C)C(N)=O [Compound 068] | 38.9 | 566 | 0.037 | 0.169 | – | – | – | –
